# Laboratory results as given in US20160228484A1, “TOMATO POWDER-BASED COMPOSITION” (MEDIAPHARMA S.R.L., priority 2013, published 2016).
# Assays:
# Assay type in all cases: in vivo, mouse
# [1] = test system: VEGF; experiment: VEGF serum levels during different diets in TRAMP mice; conditions: FIG. 4; diet fortified 10%; two-ways ANOVA; RED007 P<0.0001; Lycopene P=0.204
# Text: FIG. 4: VEGF serum levels during different diets. Values represent mean ±SD(n8mice). […] RED007 may be also designated “Lycoprozen”. The two terms are interchangeable herein.
# (§1) FIG. 6: VEGF serum levels during different diets. Values represent mean±SD(n8mice). The control diet was fortified with a 10% mixture of A and B components. The two components were mixed according to different Acomponent/Bcomponent ratios (w/w), i.e. 99.5:0.5, 98.0:2.0 (RED007 diet), and 96.0:4.0, respectively.
# [2] = test system: TRAMP mice; experiment: Kaplan-Meier survival of TRAMP mice fed fortified diets; conditions: Lycopene treated, not significantly different from Control Diet (11%), P=0.384, unpublished observations
# Text: In man, early prostate tumorigenesis appears to be associated with a dysplasia that starts with proliferative inflammatory atrophy which may progress to low-grade Prostatic Intraepithelial Neoplasia (PIN), to high-grade PIN, to primary cancer, to metastatic cancer, and to hormone refractory cancer after hormonal treatment (23,24). Transgenic adenocarcinoma of the mouse prostate (TRAMP) is a model in which the progression of prostate cancer mirrors the stages of the human form, from PIN to undifferentiated, androgen independent tumor (25). Expression od the SV40 early genes driven by the prostate-specific promoter probasin leads to prostate cell transformation and all TRAMP mice develop prostate cancer spontaneously. This model, therefore, is regularly used to assess chemoprevention of prostate cancer (22).
# In a recent paper (36), we reported that a tomato diet (Control Diet enriched with 10% of a “tomato powder”, whose composition is reported in Table 1), increased TRAMP mice survival.
# [3] = test system: IL6; experiment: IL6 serum levels during different diets in TRAMP mice; conditions: FIG. 5; diet fortified 10%; two-ways ANOVA; RED007 P<0.0001; Lycopene P=0.314
# Text: FIG. 5: IL6 serum levels during different diets. Values represent mean±SD(n8mice).
# as §1, with “7: IL6” for “6: VEGF”, “mean ±SD(n8mice).” for “mean±SD(n8mice).”
smiles,measurement,setting,value
"CC(C)=CCC/C(C)=C/C=C/C(C)=C/C=C/C(C)=C/C=C/C=C(C)/C=C/C=C(C)/C=C/C=C(\C)CCC=C(C)C [Lycopene, lycopene]",VEGF serum levels compared to Control Diet,[1],did not significantly modify
same,survival proportion,[2],17%
same,IL6 serum levels compared to Control Diet,[3],did not significantly modify
